{"source": "paper PMC13203959", "about": "“New inhibitors of the Pseudomonas aeruginosa enzyme, PqsE, and methods assessing their potential to induce a conformational change via active site binding” (mSphere, 2026)", "key": {"PqsE-RhlR interaction": {"target": "T1, PqsE-RhlR interaction (Pseudomonas aeruginosa, UniProt P20581)", "T1 construct": "made in house; host or cells: Escherichia coli (PqsE purified; RhlR as crude lysate from a pET23a-rhlR strain grown with mBTL)", "assay": "PqsE-RhlR in vitro pull-down", "assay_type": "binding", "conditions": "up to 100 µM, 1 µM 6xHis-PqsE(WT), RhlR-containing lysate", "procedure": "RhlR was expressed following a previously established method ([18], [19]). Briefly, lysate was prepared from cultures of an Escherichia coli strain carrying rhlR on a pET23a plasmid that had been treated with the RhlR-solubilizing ligand, mBTL ([33]). The pull-down assay was conducted following a previously established method with some modifications ([18]). Briefly, purified 6xHis-PqsE(WT) was incubated with test molecules at the specified concentrations for 10 min at room temperature. The treated PqsE was then added to 100 µL of RhlR-containing lysate in lysis buffer (50 mM Tris-HCl, 150 mM NaCl, 20 mM imidazole, pH = 8.0) to a total final volume of 150 µL and a final PqsE concentration of 1 µM (final 0.6% DMSO). The mixtures were incubated at 4°C with rotation for 30 min before MagneHis Ni resin (Promega) was added (10 µL of settle volume), and incubation at 4°C with rotation was continued for 1 h. The Ni resin was then washed three times with lysis buffer, and then PqsE complexes were eluted with 50 µL elution buffer (50 mM Tris-HCl, 150 mM NaCl, 500 mM imidazole, pH = 8.0). The eluted proteins were then denatured in Laemmli sample buffer at 95°C and analyzed by SDS-PAGE."}, "PqsE(E182A)": {"target": "T2, PqsE(E182A) (Pseudomonas aeruginosa, UniProt P20581, E182A)", "T2 construct": "made in house", "assay_type": "binding", "conditions": "PqsE(E182A) 2 µM, compound 100 µM"}, "PqsE(WT) [1]": {"target": "T3, PqsE(WT) (Pseudomonas aeruginosa, UniProt P20581)", "T3 construct": "6xHis (N); made in house; host or cells: E. coli BL21 (DE3)", "assay": "Differential scanning fluorimetry (DSF), PqsE(WT)", "assay_type": "binding", "conditions": "PqsE(WT) 2 µM, compound 100 µM", "procedure": "Compounds HJ1, HJ2, and HJ5 were tested for the ability to bind and shift the Tm of purified PqsE and PqsE variants using DSF as described previously with some modifications ([18]). Briefly, compounds in DMSO were diluted in assay buffer (50 mM Tris, 150 mM NaCl, 200 µM MnCl2, pH 8) to achieve a final concentration of 100 µM (1% DMSO). Compound solutions were transferred to the wells of a 96-well PCR plate (ThermoFisher), and control wells were prepared with 1% DMSO (negative control). SYPRO Orange Dye and PqsE solutions were diluted in assay buffer and subsequently added to the wells to reach final concentrations of 7× SYPRO Orange and 2 µM PqsE. Final volume in each well was 80 µL. Plates were sealed with transparent optical adhesive covers (ThermoFisher) prior to measurement of SYPRO Orange fluorescence (ex, 580 nm; em, 623 nm) in a QuantStudio 3 Real-Time PCR system (ThermoFisher) over an increasing temperature gradient from 25 to 90°C (temperature increased at a rate of 0.1°C/s). Tm was determined from first derivative plots of the raw fluorescence curves using the Prism 9.0 software."}, "PqsE(S285A) [2]": {"target": "T4, PqsE(S285A) (Pseudomonas aeruginosa, UniProt P20581, S285A)", "assay": "Esterase assay: inhibition of MU-butyrate hydrolysis by PqsE(S285A)", "assay_type": "biochemical"}, "PqsE(E280A)": {"target": "T5, PqsE(E280A) (Pseudomonas aeruginosa, UniProt P20581, E280A)", "T5 construct": "made in house", "assay_type": "binding", "conditions": "PqsE(E280A) 2 µM, compound 100 µM"}, "PqsE(E182W)": {"target": "T6, PqsE(E182W) (Pseudomonas aeruginosa, UniProt P20581, E182W)", "T6 construct": "made in house", "assay_type": "binding", "conditions": "PqsE(E182W) 2 µM, compound 100 µM"}, "PqsE(S285W) [3]": {"target": "T7, PqsE(S285W) (Pseudomonas aeruginosa, UniProt P20581, S285W)", "T7 construct": "6xHis (N); made in house; host or cells: E. coli BL21 (DE3)", "assay_type": "binding", "conditions": "compound 100 µM"}, "PqsE(WT) [4]": {"target": "T3, PqsE(WT)", "assay": "Esterase assay: inhibition of PqsE-catalyzed MU-butyrate hydrolysis", "assay_type": "biochemical", "conditions": "% inhibition", "procedure": "Purified PqsE, diluted in assay buffer (50 mM Tricine, 0.01% Triton X-100, pH 8.5), was added to the wells of an opaque 384-well plate at a final concentration of 125 nM. Test molecules were diluted in DMSO and added to the wells at the indicated concentrations (5% DMSO final). The plate was then incubated at room temperature for 5 min. MU-butyrate in assay buffer was added to the plate at a final concentration of 2 µM. The plate was incubated at room temperature for 20 min prior to measuring fluorescence (excitation: 360 nm and emission: 450 nm) to monitor the hydrolysis of MU-butyrate. All data were plotted in the Prism 9.0 program, and IC50 values were calculated from inhibition curves fit to the data."}, "PqsE(S285Y)": {"target": "T8, PqsE(S285Y) (Pseudomonas aeruginosa, UniProt P20581, S285Y)", "T8 construct": "made in house", "assay_type": "binding", "conditions": "PqsE(S285Y) 2 µM, compound 100 µM"}, "[5]": {"system": "P. aeruginosa PA14 pqsE(S285W) mutant strain", "assay_type": "cell-based", "conditions": "50 or 100 µM"}, "PqsE(S285W) [6]": {"target": "T7, PqsE(S285W)", "assay_type": "biochemical", "conditions": "esterase assay"}, "[7]": {"system": "wild-type P. aeruginosa PA14", "assay": "Pyocyanin assay, wild-type strain", "assay_type": "cell-based, Pseudomonas aeruginosa", "conditions": "pqsE(WT) strain, up to 100 µM", "procedure": "P. aeruginosa PA14 cultures were grown overnight in LB at 37°C with shaking. The saturated cultures were then diluted 1:1,000 into fresh LB containing test molecules in DMSO (final 1% DMSO). Cultures then grew for ~17 h at 37°C with shaking at 200 rpm. Next, 1 mL of each culture was collected and pelleted by centrifugation at 13,000 rpm for 3 min. The supernatant was carefully transferred to a cuvette, and the OD695 was measured in a Genesys 20 ThermoSpectronic spectrophotometer. The cell pellet was resuspended in 1 mL of PBS and then transferred into the wells of a clear 96-well plate at 100 µL per well. The OD600 was measured to assess cell density. Pyocyanin production (OD695) of the supernatants was normalized to cell density (OD600 of the resuspended cell pellets)."}, "PqsE(E182W/E280A)": {"target": "T9, PqsE(E182W/E280A) (Pseudomonas aeruginosa, UniProt P20581, E182W/E280A)", "T9 construct": "made in house", "assay_type": "binding", "conditions": "PqsE(E182W/E280A) 2 µM, compound 100 µM"}, "PqsE(S285A) [8]": {"target": "T4, PqsE(S285A)", "assay": "Differential scanning fluorimetry (DSF), PqsE(S285A)", "assay_type": "binding", "conditions": "compound 100 µM"}, "PqsE(S285D)": {"target": "T10, PqsE(S285D) (Pseudomonas aeruginosa, UniProt P20581, S285D)", "T10 construct": "made in house", "assay_type": "binding", "conditions": "PqsE(S285D) 2 µM, compound 100 µM"}}}
{"smiles": "CC(C)(C)OC(=O)Nc1ccc(NC(=O)c2cccc3cn[nH]c23)cc1", "note": "[HJ1]", "values": [{"measurement": "effect on PqsE-RhlR complex formation", "setting": "PqsE-RhlR interaction", "result": "neither HJ1 nor HJ5 showed any effect on complex formation"}, {"measurement": "Tm of PqsE-HJ complex", "setting": "PqsE(E182A)", "result": 70.1, "unit": "°C"}, {"measurement": "∆Tm, shift in melting temperature vs DMSO-treated control", "setting": "PqsE(E182A)", "result": 0.50, "unit": "°C"}, {"measurement": "Tm of PqsE-HJ complex", "setting": "PqsE(WT) [1]", "result": 70.5, "unit": "°C"}, {"measurement": "∆Tm, shift in melting temperature vs DMSO-treated control", "setting": "PqsE(WT) [1]", "result": 3.56, "unit": "°C"}, {"measurement": "increase of IC50 against PqsE(S285A) variant versus PqsE(WT)", "setting": "PqsE(S285A) [2]; 20 min", "result": "approximately 10 fold"}, {"measurement": "maximum level of inhibition of PqsE(S285A)", "setting": "PqsE(S285A) [2]; % inhibition", "result": "~ 70%"}, {"measurement": "Tm of PqsE-HJ complex", "setting": "PqsE(E280A)", "result": 68.8, "unit": "°C"}, {"measurement": "∆Tm, shift in melting temperature vs DMSO-treated control", "setting": "PqsE(E280A)", "result": 2.28, "unit": "°C"}, {"measurement": "Tm of PqsE-HJ complex", "setting": "PqsE(E182W)", "result": 74.4, "unit": "°C"}, {"measurement": "∆Tm, shift in melting temperature vs DMSO-treated control", "setting": "PqsE(E182W)", "result": 0.98, "unit": "°C"}, {"measurement": "Tm of PqsE-HJ complex", "setting": "PqsE(S285W) [3]; PqsE(S285W) 2 µM", "result": 66.8, "unit": "°C"}, {"measurement": "∆Tm, shift in melting temperature vs DMSO-treated control", "setting": "PqsE(S285W) [3]; PqsE(S285W) 2 µM", "result": 0.07, "unit": "°C"}, {"measurement": "significance of shift in Tm compared to HJ2", "setting": "PqsE(S285W) [3]; PqsE(S285W)", "result": "neither HJ1 nor HJ5 induced significant shifts in Tm"}, {"measurement": "maximum level of inhibition of PqsE(WT)", "setting": "PqsE(WT) [4]", "result": 100, "unit": "%"}, {"measurement": "Tm of PqsE-HJ complex", "setting": "PqsE(S285Y)", "result": 68.3, "unit": "°C"}, {"measurement": "∆Tm, shift in melting temperature vs DMSO-treated control", "setting": "PqsE(S285Y)", "result": 0.54, "unit": "°C"}, {"measurement": "effect on pyocyanin production", "setting": "[5]", "result": "no appreciable effect"}, {"measurement": "effect of S285W substitution on binding/inhibition", "setting": "PqsE(S285W) [6]", "result": "completely abrogated binding"}, {"measurement": "effect on pyocyanin production", "setting": "[7]", "result": "no appreciable effect"}, {"measurement": "Tm of PqsE-HJ complex", "setting": "PqsE(E182W/E280A)", "result": 72.4, "unit": "°C"}, {"measurement": "∆Tm, shift in melting temperature vs DMSO-treated control", "setting": "PqsE(E182W/E280A)", "result": 2.58, "unit": "°C"}, {"measurement": "Tm of PqsE-HJ complex", "setting": "PqsE(S285A) [8]; PqsE(S285A) 2 µM", "result": 68.1, "unit": "°C"}, {"measurement": "∆Tm, shift in melting temperature vs DMSO-treated control", "setting": "PqsE(S285A) [8]; PqsE(S285A) 2 µM", "result": 0.81, "unit": "°C"}, {"measurement": "significance of shift in Tm compared to HJ2", "setting": "PqsE(S285A) [8]; PqsE(S285A)", "result": "neither HJ1 nor HJ5 induced significant shifts in Tm"}, {"measurement": "Tm of PqsE-HJ complex", "setting": "PqsE(S285D)", "result": 67.2, "unit": "°C"}, {"measurement": "∆Tm, shift in melting temperature vs DMSO-treated control", "setting": "PqsE(S285D)", "result": 0.35, "unit": "°C"}]}
